Experimental data as given in PubChem BioAssay AID248 (DTP/NCI, 2004).
Values joined by “and” are separate entries in the source; they are usually repeats but may differ in a detail not shown here. Equal entries are not always repeated. Inconclusive results and toxic doses are left out. Cut-off read from the data, not from the text of the source: active = T/C of 150% or more; inactive = T/C below 125%.

System: L1210 leukemia ip in BDF1 mice, survival T/C
Assay: NCI In Vivo Anticancer Drug Screen. Data for tumor model L1210 Leukemia (intraperitoneal) in B6D2F1 (BDF1) mice
Details: endpoint: mean survival time, higher = longer survival
Outline: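 Read-out is survival time, reported as the treated-group measurement over the vehicle-control measurement.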

[1] = dose: 100.0 mg/kg/injection, schedule: Q04DX002 (ip), vehicle: saline with Tween-80
[2] = dose: 200.0 mg/kg/injection, schedule: Q04DX002 (ip), vehicle: saline with Tween-80
[3] = dose: 100.0 mg/kg/injection, schedule: Q01DX001 (ip), vehicle: saline with Tween-80
[4] = dose: 100.0 mg/kg/injection, schedule: Q01DX009 (ip), vehicle: saline with Tween-80
[5] = dose: 100.0 mg/kg/injection, schedule: Q04DX003 (ip), vehicle: saline with Tween-80
[6] = dose: 200.0 mg/kg/injection, schedule: Q01DX001 (ip), vehicle: saline with Tween-80
[7] = dose: 200.0 mg/kg/injection, schedule: Q01DX009 (ip), vehicle: saline with Tween-80
[8] = dose: 200.0 mg/kg/injection, schedule: Q04DX003 (ip), vehicle: saline with Tween-80
[9] = dose: 400.0 mg/kg/injection, schedule: Q01DX001 (ip), vehicle: saline with Tween-80
[10] = dose: 400.0 mg/kg/injection, schedule: Q01DX009 (ip), vehicle: saline with Tween-80
[11] = dose: 400.0 mg/kg/injection, schedule: Q04DX002 (ip), vehicle: saline with Tween-80
[12] = dose: 400.0 mg/kg/injection, schedule: Q04DX003 (ip), vehicle: saline with Tween-80
[13] = dose: 100.0 mg/kg/injection, schedule: Q04DX002 (ip), vehicle: Klucel (hydroxypropylcellulose) (HPC)
[14] = dose: 200.0 mg/kg/injection, schedule: Q04DX002 (ip), vehicle: Klucel (hydroxypropylcellulose) (HPC)
[15] = dose: 400.0 mg/kg/injection, schedule: Q04DX002 (ip), vehicle: Klucel (hydroxypropylcellulose) (HPC)
[16] = dose: 100.0 mg/kg/injection, schedule: Q01DX001 (ip), vehicle: carboxymethylcellulose (CMC)
[17] = dose: 200.0 mg/kg/injection, schedule: Q01DX001 (ip), vehicle: carboxymethylcellulose (CMC)
[18] = dose: 400.0 mg/kg/injection, schedule: Q01DX001 (ip), vehicle: carboxymethylcellulose (CMC)
[19] = dose: 100.0 mg/kg/injection, schedule: Q04DX003 (ip), vehicle: saline
[20] = dose: 200.0 mg/kg/injection, schedule: Q04DX003 (ip), vehicle: saline
[21] = dose: 400.0 mg/kg/injection, schedule: Q04DX003 (ip), vehicle: saline
[22] = dose: 100.0 mg/kg/injection, schedule: Q01DX009 (ip), vehicle: Klucel (hydroxypropylcellulose) (HPC)
[23] = dose: 200.0 mg/kg/injection, schedule: Q01DX009 (ip), vehicle: Klucel (hydroxypropylcellulose) (HPC)
[24] = dose: 50.0 mg/kg/injection, schedule: Q01DX009 (ip), vehicle: Klucel (hydroxypropylcellulose) (HPC)
[25] = dose: 100.0 mg/kg/injection, schedule: Q01DX001 (ip), vehicle: saline
[26] = dose: 200.0 mg/kg/injection, schedule: Q01DX001 (ip), vehicle: saline
[27] = dose: 400.0 mg/kg/injection, schedule: Q01DX001 (ip), vehicle: saline
[28] = dose: 100.0 mg/kg/injection, schedule: Q01DX009 (ip), vehicle: saline
[29] = dose: 200.0 mg/kg/injection, schedule: Q01DX009 (ip), vehicle: saline
[30] = dose: 75.0 mg/kg/injection, schedule: Q01DX001 (ip), vehicle: saline
[31] = dose: 150.0 mg/kg/injection, schedule: Q01DX001 (ip), vehicle: saline

Measured: T/C

CCCCOP(=O)(NC1CCCCC1)OCCCC
inactive: dose: 50.0 mg/kg/injection, schedule: Q04DX002 (ip), vehicle: saline with Tween-80 107 % of control | [1] 96 % of control | [2] 104 % of control

COc1ccccc1NC(=O)Nc1ccc(S(N)(=O)=O)cc1
inactive: [3] 97 % of control | [4] 101 % of control and 106 % of control | [1] 98 % of control and 103 % of control | [5] 94 % of control | [6] 111 % of control | [7] 98 % of control and 116 % of control | [2] 104 % of control | [8] 90 % of control | [9] 97 % of control | [10] 97 % of control and 98 % of control | [11] 95 % of control | [12] 100 % of control

O=S(=O)(c1ccccc1)C(Br)c1ccc(F)cc1 (configuration not stated)
inactive: [13] 97 % of control | [14] 105 % of control | [15] 101 % of control

c1ccc(P(c2ccccc2)N2CCN(P(c3ccccc3)c3ccccc3)CC2)cc1
inactive: [1] 96 % of control | [2] 93 % of control | [11] 104 % of control

COc1ccc(C(=O)CCC(=O)O)cc1
inactive: [4] 102 % of control | [7] 93 % of control | [10] 91 % of control

CC1C(C)(C)C1(F)Cl (configuration not stated)
inactive: [16] 95 % of control | [17] 103 % of control | [18] 108 % of control

Nc1c(-c2ncc[nH]2)ncn1C1OC(CO)C(O)C1O (configuration not stated)
inactive: dose: 100.0 mg/kg/injection, schedule: Q01DX005 (ip), vehicle: saline 94 % of control | dose: 200.0 mg/kg/injection, schedule: Q01DX005 (ip), vehicle: saline 93 % of control

CC(CO)CCCC(C)C1CCC2C3CC=C4CC(O)CCC4(C)C3CCC12C (configuration not stated)
inactive: [3] 94 % of control | [6] 90 % of control | [9] 100 % of control

O=C(O)COc1c(Cl)c(Cl)c(Cl)c(Cl)c1Cl
inactive: [4] 93 % of control

COC(=O)c1cc(OC)cc(OC)c1
inactive: dose: 100.0 mg/kg/injection, schedule: Q04DX003 (ip), vehicle: other 88 % of control | dose: 200.0 mg/kg/injection, schedule: Q04DX003 (ip), vehicle: other 92 % of control | dose: 400.0 mg/kg/injection, schedule: Q04DX003 (ip), vehicle: other 97 % of control

Cc1cccc(CCl)c1
inactive: dose: 37.5 mg/kg/injection, schedule: Q01DX009 (ip), vehicle: saline sonified 106 % of control | dose: 75.0 mg/kg/injection, schedule: Q01DX009 (ip), vehicle: saline sonified 95 % of control | [19] 102 % of control | dose: 150.0 mg/kg/injection, schedule: Q01DX009 (ip), vehicle: saline sonified 98 % of control | [20] 100 % of control | [21] 93 % of control

CN(C)c1ccc(/C=N/NC(=O)C(O)C(O)C(O)C(O)CO)cc1 (configuration not stated)
inactive: [22] 97 % of control | [23] 96 % of control | dose: 400.0 mg/kg/injection, schedule: Q01DX009 (ip), vehicle: Klucel (hydroxypropylcellulose) (HPC) 102 % of control

O=C1c2ccccc2-c2ccc(Br)c3cccc1c23
inactive: [24] 93 % of control | dose: 50.0 mg/kg/injection, schedule: Q04DX003 (ip), vehicle: Klucel (hydroxypropylcellulose) (HPC) 100 % of control | [22] 91 % of control | dose: 100.0 mg/kg/injection, schedule: Q04DX003 (ip), vehicle: Klucel (hydroxypropylcellulose) (HPC) 95 % of control | [23] 91 % of control | dose: 200.0 mg/kg/injection, schedule: Q04DX003 (ip), vehicle: Klucel (hydroxypropylcellulose) (HPC) 100 % of control

CSc1nc(N)nc2ncc(CN(C)c3ccc(C(=O)O)cc3)nc12
inactive: dose: 8.0 mg/kg/injection, schedule: Q01DX009 (ip), vehicle: DMSO 100 % of control | dose: 12.0 mg/kg/injection, schedule: Q01DX009 (ip), vehicle: DMSO 98 % of control | dose: 18.0 mg/kg/injection, schedule: Q01DX009 (ip), vehicle: DMSO 100 % of control | dose: 25.0 mg/kg/injection, schedule: Q01DX009 (ip), vehicle: DMSO 88 % of control | dose: 50.0 mg/kg/injection, schedule: Q01DX001 (ip), vehicle: DMSO 91 % of control

C=CC(O)CCCCCC (configuration not stated)
inactive: dose: 50.0 mg/kg/injection, schedule: Q01DX001 (ip), vehicle: carboxymethylcellulose (CMC) 97 % of control | [16] 101 % of control | [17] 95 % of control | [18] 103 % of control

O=c1cccc(CCc2ccccc2)[nH]1
inactive: [25] 100 % of control | [26] 95 % of control | [27] 105 % of control

COCCNc1ccc(NCCOC)c2c1C(=O)c1ccccc1C2=O
inactive: dose: 87.5 mg/kg/injection, schedule: Q04DX003 (ip), vehicle: Klucel (hydroxypropylcellulose) (HPC) 91 % of control | dose: 175.0 mg/kg/injection, schedule: Q04DX003 (ip), vehicle: Klucel (hydroxypropylcellulose) (HPC) 91 % of control | dose: 350.0 mg/kg/injection, schedule: Q04DX003 (ip), vehicle: Klucel (hydroxypropylcellulose) (HPC) 88 % of control

N#Cc1ccc2cn[nH]c2c1
inactive: [5] 92 % of control | [8] 101 % of control | [12] 99 % of control

C/C=C\C(=O)O
inactive: [28] 101 % of control | [29] 96 % of control

CCSC(=O)OCn1ncc2cc([N+](=O)[O-])ccc21
inactive: [25] 112 % of control | [26] 91 % of control | [27] 103 % of control

Nc1cc(C(F)(F)F)ccc1Cl
inactive: dose: 100.0 mg/kg/injection, schedule: Q04DX003 (ip), vehicle: alcohol 100 % of control | dose: 200.0 mg/kg/injection, schedule: Q04DX003 (ip), vehicle: alcohol 96 % of control | dose: 400.0 mg/kg/injection, schedule: Q04DX003 (ip), vehicle: alcohol 97 % of control

N#CC(CCCc1cccc(N2CN=C(N)N=C2N)c1)c1ccccc1 (configuration not stated)
inactive: dose: 50.0 mg/kg/injection, schedule: Q01DX001 (ip), vehicle: saline 96 % of control

O=[N+]([O-])c1cccc(/C=C/C=C/c2c(Cl)cccc2Cl)c1
inactive: [25] 91 % of control | [26] 94 % of control | [27] 100 % of control

CC1(C)N=C(N)N=C(N)N1c1cccc(Cc2ccccc2)c1
inactive: dose: 25.0 mg/kg/injection, schedule: Q01DX001 (ip), vehicle: saline with Tween-80 92 % of control | dose: 50.0 mg/kg/injection, schedule: Q01DX001 (ip), vehicle: saline with Tween-80 106 % of control

CC/C=C/C1(C(C)C)C(=O)NC(=O)NC1=O (tested in a mixture with another compound)
inactive: [30] 100 % of control | [31] 94 % of control | dose: 300.0 mg/kg/injection, schedule: Q01DX001 (ip), vehicle: saline 94 % of control

O=C(O)C1CC(Br)C(Br)CC1C(=O)Nc1cccc2ccccc12 (configuration not stated)
inactive: [13] 100 % of control | [14] 92 % of control | [15] 95 % of control

Cn1c2c(c(=O)n(C)c1=O)CC(=O)N2
inactive: [24] 100 % of control | [22] 103 % of control

Cc1ccc([N+](=O)[O-])cc1NC(=O)N(CCO)C1CCCCC1
inactive: [13] 101 % of control | [14] 100 % of control | [15] 104 % of control

CC(C)CCNc1ncnc2nc[nH]c12
inactive: [30] 90 % of control | [31] 92 % of control

O=C(Cn1cc(F)c(=O)[nH]c1=O)c1ccco1
inactive: [28] 90 % of control | [19] 96 % of control | [29] 91 % of control | [20] 93 % of control | dose: 400.0 mg/kg/injection, schedule: Q01DX009 (ip), vehicle: saline 88 % of control | [21] 88 % of control
